Several values for one entry are separate records, joined by “and”; a condition that tells them apart may be missing. Equal values may be shown once.
Legend:
HT-29 solid tumors = assay: In vivo anti-tumor assay; set-up: species or system nude mice
Description: Male BALB/c nu/nu mice at 5 week of age (18 g) were purchased from Japan SLC, Inc. (Shizuoka, Japan). Mice receiving standard laboratory chow and water ad libitum were acclimatized for 1 week before inoculation with cancer cells. For in vivo experiments, human colon HT-29 cells (1×10^7 cells/mouse) were subcutaneously injected into nude mice. Mice bearing solid tumors that had grown to approximately 100 mm^3 in volume (tumor volume = length×width×height) at 12 days after implantation were used for the assessment of anti-tumor effects. They were divided randomly into five groups (n = 6/group). One of the five groups was a control group injected with 0.1 mL of phosphate buffered saline (PBS) alone, and other groups were injected with vitamin K3 (3), juglone (4), C18:1-acyl juglone (5f), and C18:1-acyl plumbagin (2f) dissolved in PBS at a dose of 5 mg/kg. The above administrations all took place between days 12–39 subsequent to implantation. All mice were injected subcutaneously 14 times at […] with the compound and PBS alone (control). Tumor growth was measured at 1-day intervals for 40 days after implantation. At the end of the in vivo anti-tumor assay, some mice treated with the test compounds and PBS were independently examined to observe major organs such as lung, heart, spleen, stomach, liver, pancreas, kidney, intestine, and brain.

MCF-7 (breast cancer) = assay: Cancer cell viability, MTT assay; format: cell-based, human; settings: 48 h, mean ± SD (n = 5)
Procedure: (§1) The following human cancer cell lines were obtained from the American Type Culture Collection (Manassas, VA, USA): lung (A549), prostate (DU145 and PC3), colon (HCT116 and HT-29), cervix (HeLa), hepatocellular liver (HepG2), breast (MCF-7), and pancreatic cancer (PANC-1). These cells were cultured in RPMI 1640 medium supplemented with 10% fetal bovine serum, penicillin (100 units/mL), streptomycin (100 µg/mL), and 1.6 mg/mL NaHCO3 at 37°C in a humid atmosphere of 5% CO2/95% air. For the cell viability assay, cells were seeded at 1×10^3 cells/well in a 96-well microplate with various concentrations of the test compounds, and incubated for 48 h. MTT (3-(4,5-dimethylthiazol-2-yl)-2,5-diphenyl tetrazolium bromide) solution was added to a final concentration 0.6 mg/mL in Milli-Q purified water for 2 h, after which time the medium was discarded and the cells lysed in DMSO. A540 was then measured in a microplate reader (Model 680, Bio-Rad Laboratories, Hercules, CA, USA).

[1] = test system: PANC-1 (pancreatic cancer); assay: Cancer cell viability, MTT assay; format: cell-based, human; settings: 48 h, mean ± SD (n = 5)
Procedure: as §1

A549 (lung cancer) = assay: Cancer cell viability, MTT assay; format: cell-based, human; settings: 48 h, mean ± SD (n = 5)
Procedure: as §1

DU145 (prostate cancer) = assay: Cancer cell viability, MTT assay; format: cell-based, human; settings: 48 h, mean ± SD (n = 5)
Procedure: as §1

[2] = test system: HT-29 cells (colon cancer); assay: Cancer cell viability, MTT assay; format: cell-based, human; settings: 48 h, mean ± SD (n = 5)
Procedure: as §1

[3] = test system: HepG2 (hepatocellular liver cancer); assay: Cancer cell viability, MTT assay; format: cell-based, human; settings: 48 h, mean ± SD (n = 5)
Procedure: as §1

HeLa (cervical cancer) = assay: Cancer cell viability, MTT assay; format: cell-based, human; settings: 48 h, mean ± SD (n = 5)
Procedure: as §1

HCT116 (colon cancer) = assay: Cancer cell viability, MTT assay; format: cell-based, human; settings: 48 h
Procedure: as §1

PC3 (prostate cancer) = assay: Cancer cell viability, MTT assay; format: cell-based, human; settings: 48 h, mean ± SD (n = 5)
Procedure: as §1

## CCCCCCCC/C=C\CCCCCCCC(=O)Oc1cccc2c1C(=O)C=C(C)C2=O [2f, 5-O-oleoyl-2-methyl-1,4-naphthoquinone]
HT-29 solid tumors; 5 mg/kg, versus vitamin K3, juglone, C18:1-acyl juglone
  anti-tumor effect, fold stronger than the other compounds tested: > 3 fold
HT-29 solid tumors; at 40 days, 5 mg/kg subcutaneously in PBS, versus PBS control, n = 6
  decreased rates of tumor volume: 30.5%
MCF-7 (breast cancer)
  LD50 values: 7.2 ± 0.7 µM
[1]
  LD50 values: 16.1 ± 1.8 µM
A549 (lung cancer)
  LD50 values: 15.4 ± 1.7 µM
DU145 (prostate cancer)
  LD50 values: 8.8 ± 0.9 µM
[2]
  LD50 values: 2.9 ± 0.4 µM
[2]; listed as C18:1-acyl plumbagin
  LD50 values: 2.9 µM
[3]
  LD50 values: 7.4 ± 0.8 µM
HeLa (cervical cancer)
  LD50 values: 21.0 ± 2.5 µM
HCT116 (colon cancer); 10 µM, MTT, control = 100%
  cell proliferation rate: less than 40%
HCT116 (colon cancer); 10 and 100 µM, MTT, Fig. 5
  cell proliferation inhibitory effect compared among the compounds (in words): strongest effects on cancer cell proliferation suppression
HCT116 (colon cancer); MTT assay, mean ± SD (n = 5)
  LD50 values: 6.5 µM and 6.5 ± 0.6 µM
PC3 (prostate cancer)
  LD50 values: 10.0 ± 1.1 µM
